Drawing on the OligoGym collection, this text covers target mRNA inhibition for 67 sequences.

After the bases stand the sugars from the 5' end (letter, count) and the backbone: PS all phosphorothioate, else s phosphorothioate and o phosphodiester by linkage. Methylation of C is not given here. e = 2'-O-(2-methoxyethyl) (MOE); k = constrained ethyl (cEt); d = 2'-deoxy (DNA); m = 2'-O-methyl

The target in the data set is HSD17B13. As to conditions: ASO, HepaRG.

In turn, “ACTACAAGAGGTTATT (sugars kkdddddddddkekek, PS)” showed a target mRNA inhibition (1 µM) of 42%.
Where the note is “1 µM”, “CCTGTGTTAGCTTTAA (sugars kkdddddddddkekek, PS)” gave a target mRNA inhibition of 62%.
For the setting “1 µM”, GCATAAGAGCCAAACT (sugars k3 d10 k3, PS) yielded a target mRNA inhibition of 67%.
In the case of ACCTTCCCTGTGTAAA (sugars k3 d10 k3, PS), where the note is “1 µM”, the target mRNA inhibition is 60%.
TAGTTTTCGGCACTCA (sugars k3 d10 k3, PS) displayed a target mRNA inhibition (1 µM) of 35%.
On to “GTTGAGATAAAGCTGC (sugars kkdddddddddkekek, PS)”, for which, where the note is “1 µM”, the target mRNA inhibition is 40%.
As for “CTATAGTAATCACAAG (sugars k3 d1 m1 d8 k3, PS)”, under “1 µM”, the target mRNA inhibition turned out to be 37%.
Turning to CTGTGTAAATAAGTTC (sugars k3 d10 k3, PS), the target mRNA inhibition (1 µM) turned out to be 38%.
As to “TATGUGATTGAGTTCT (sugars k3 d1 m1 d8 k3, PS)”, the target mRNA inhibition (1 µM) is 21%.
On to “TGGTAACGGTGATCAA (sugars k3 d1 m1 d8 k3, PS)”, for which the target mRNA inhibition (1 µM) is 41%.
As to “TATGTGATTGAGTTCT (sugars k3 d9 k3 e1, PS)”, the target mRNA inhibition (1 µM) came out at 43%.
With AAGAAATTTGTGAACC (sugars k3 d10 k3, PS), the target mRNA inhibition (1 µM) was 21%.
For “TTAAAATAGAGTCGGT (sugars k3 d9 k3 e1, PS)”, the target mRNA inhibition (1 µM) was 71%.
Sequence ATCAAAATGGTGGCGA (sugars k3 d10 k3, PS) registered a target mRNA inhibition (1 µM) of 20%.
With ATTTAGGGCAAACCTT (sugars k3 d10 k3, PS), the target mRNA inhibition (1 µM) came out at 35%.
Still for that read-out and setting: the value for “TGCAGCATTGATTCGA (sugars k3 d9 k3 e1, PS)” was 52%; that for TAGTCTGCCTGCCTAT (sugars k3 d10 k3, PS) was 44%.
In turn, GCTGAGAGTTATCTGG (sugars k3 d10 k3, PS) returned a target mRNA inhibition (1 µM) of 65%.
Sequence “TGGGACCAAGGATATA (sugars kkdddddddddkekek, PS)” gave a target mRNA inhibition (1 µM) of 30%.
Same read-out and setting: the value for “TCTGGGACCAAGGATA (sugars kkdddddddddkekek, PS)” was 56%.
Regarding ATGCCAAGCTTTGTGT (sugars k3 d10 k3, PS), the target mRNA inhibition (1 µM) came to 50%.
“TCTTAGCTGTGCACTC (sugars kkdddddddddkekek, PS)”: the target mRNA inhibition (1 µM) is 50%.
Still for that read-out and setting: the value for GTCCTAGGGAGGAGGT (sugars k3 d10 k3, PS) was 36%; that for ATACTGAAATTGATAC (sugars k3 d10 k3, PS) was 11%.
Sequence TCTAAAGGGCTGCTCT (sugars k3 d10 k3, PS) came in with a target mRNA inhibition (1 µM) of 33%.
Under “1 µM”, “TAGTCTTGATGTAGTG (sugars kkdddddddddkekek, PS)” came in with a target mRNA inhibition of 43%.
GGCAGTTGAAGTTGAT (sugars k3 d10 k3, PS): where the note is “1 µM”, the target mRNA inhibition was found to be 46%.
With GCTGCATTAATGCCAC (sugars k3 d10 k3, PS), for the setting “1 µM”, the target mRNA inhibition was 46%.
For the setting “1 µM”, ATACATACCACTCTTC (sugars k3 d10 k3, PS) had a target mRNA inhibition of 18%.
Where the note is “1 µM”, ACCACATAGCTAACTC (sugars k3 d10 k3, PS) showed a target mRNA inhibition of 50%.
For the sequence “CTTCATAGTGGACTTC (sugars k3 d1 m1 d8 k3, PS)”, for the setting “1 µM”, the target mRNA inhibition turned out to be 35%.
For the setting “1 µM”, “TAAACATCTCTGGGAC (sugars k3 d9 k3 e1, PS)” displayed a target mRNA inhibition of 32%.
Take CTGTGACGATGTGGCC (sugars k3 d10 k3, PS): under “1 µM”, the target mRNA inhibition came out at 28%.
Turning to AACAATCAGGAGTTGC (sugars k3 d10 k3, PS), the target mRNA inhibition (1 µM) is 31%.
As for TAAATCAGGCAGTCAT (sugars k3 d10 k3, PS), the target mRNA inhibition (1 µM) worked out at 35%.
As to CCAGAATAGAGTTGCA (sugars k3 d10 k3, PS), where the note is “1 µM”, the target mRNA inhibition was 62%.
As for GTAAGCTGAGAGTTCT (sugars k3 d10 k3, PS), the target mRNA inhibition (1 µM) worked out at 49%.
Regarding “TAAACCTTCCCTGTGT (sugars k3 d1 m1 d8 k3, PS)”, the target mRNA inhibition (1 µM) was found to be 46%.
Sequence “TAGTATAGTTATCTTC (sugars kkdddddddddkekek, PS)” came in with a target mRNA inhibition (1 µM) of 34%.
With ATGTTCATGGCTTTGC (sugars k3 d10 k3, PS), the target mRNA inhibition (1 µM) worked out at 73%.
In turn, GTCCACTTGAATTCTG (sugars k3 d10 k3, PS) displayed a target mRNA inhibition (1 µM) of 18%.
Sequence “GATGCTCCATAATAAT (sugars k3 d1 m1 d8 k3, PS)” displayed a target mRNA inhibition (1 µM) of 24%.
Regarding AAGCTTTGCAGCATTG (sugars k3 d10 k3, PS), the target mRNA inhibition (1 µM) came out at 59%.
In turn, “GACTGCTGCTAGTGCC (sugars k3 d9 k3 e1, PS)” came in with a target mRNA inhibition (1 µM) of 49%.
As to ATCGATGGAAGAAGTG (sugars k3 d10 k3, PS), the target mRNA inhibition (1 µM) was 39%.
In the case of AAGTAGATGGTAAGTC (sugars k3 d10 k3, PS), the target mRNA inhibition is, setting by setting: (0.02 µM) 7%; (0.078 µM) 42%; (0.313 µM) 67%; (1 µM) 85%; (1.25 µM) 89%; (5 µM) 95%.
Consider CATTAGCAAGCTAAGA (sugars k3 d10 k3, PS), for which the target mRNA inhibition (1 µM) turned out to be 0%.
As for TGGGAGTCGGATTATT (sugars k3 d10 k3, PS), the target mRNA inhibition (1 µM) was 44%.
For CCTTTTAACTACCCTC (sugars k3 d10 k3, PS), the target mRNA inhibition (1 µM) is 22%.
In turn, CAAGACAGACCAAGTA (sugars k3 d10 k3, PS) had a target mRNA inhibition (1 µM) of 27%.
In turn, AAGATTAGTCTTGATG (sugars k3 d10 k3, PS) came in with a target mRNA inhibition (1 µM) of 25%.
Under “1 µM”, GTAATTGGCTCTTGAG (sugars k3 d10 k3, PS) registered a target mRNA inhibition of 44%.
Same read-out and setting: in the case of TATTAAGACAGTTGAG (sugars k3 d10 k3, PS) it was 44%; in that of “AGGCUAGGGAAATCTT (sugars k3 d1 m1 d8 k3, PS)”, 41%; in that of ACTGAAATTGATACAC (sugars k3 d10 k3, PS), 49%.
Same read-out and setting: in the case of CTTATTGGTAAGTATT (sugars k3 d10 k3, PS) it was 22%; in that of TCTAAATTATTGCCTG (sugars k3 d10 k3, PS), 43%.
TAGGCTAAACCCTGGA (sugars k3 d10 k3, PS) registered a target mRNA inhibition (1 µM) of 64%.
The sequence “TTGAATAGCAAGCCAA (sugars kkdddddddddkekek, PS)” yielded a target mRNA inhibition (1 µM) of 27%.
GATAATTTGGTGTCAT (sugars k3 d10 k3, PS) displayed a target mRNA inhibition (1 µM) of 59%.
“GATTAGTCTTGATGTA (sugars kkdddddddddkekek, PS)” displayed a target mRNA inhibition (1 µM) of 56%.
For the sequence CATTTGAAGTCTATAC (sugars k3 d10 k3, PS), the target mRNA inhibition (1 µM) stood at 21%.
As to “GTATCTTATAAGACTA (sugars k3 d9 k3 e1, PS)”, the target mRNA inhibition (1 µM) was determined as 72%.
For the setting “1 µM”, “GGAAUGCTACTTGAAC (sugars k3 d1 m1 d8 k3, PS)” registered a target mRNA inhibition of 62%.
Where the note is “1 µM”, ACTTGAATTCTGTGTC (sugars k3 d10 k3, PS) returned a target mRNA inhibition of 52%.
GCCTGCTGAAACTTGA (sugars k3 d10 k3, PS) showed a target mRNA inhibition (1 µM) of 18%.
On to AAATTTGCTGGAACTG (sugars k3 d10 k3, PS), for which the target mRNA inhibition (1 µM) came to 15%.
